# Patent US20110207926A1, “NOVEL DIHYDROTRIAZINE DERIVATIVE” (HAMARI CHEMICALS, LTD., priority 2008, published 2011)
# Like-named read-outs stand apart in the source and are kept apart here.
# Columns and labels:
# Test in all cases: Bactericidal activity test (MBC measurement)
# [1] = tested on: E. coli ATCC 25922; format: cell-based, Escherichia coli
# Description: (§1) Each strain was cultured in Trypticase Soy agar medium for 18 to 20 hr, suspended in 0.1% peptone saline, and prepared to OD 600 nm, 1.0 McFarland. The suspension was further diluted with 0.1% peptone saline to give a test bacteria solution (targeted value; 2×10^7 CFU/mL).
# (§2) At 0.5, 1 and 3 min from the start of the reaction, a part of the reaction mixture was sampled and mixed with an equal amount of a neutralizing agent (10% Tween 80, 3% lecithin/aqueous solution) to terminate the bactericidal reaction. The reaction mixture was inoculated to a 96 well microplate dispensed with 180 μL of Tripticase Soy liquid medium in advance, and statically cultured at 37° C. for 20 to 24 hr. Thereafter, the presence or absence of growth was visually evaluated, and the minimum concentration at which growth was not observed was taken as the minimal bactericidal concentration (MBC value) of each action time. The numerical values in the Tables show MBC, the unit is μg/mL, S. aureus means Staphylococcus aureus, MRSA means methicillin-resistant Staphylococcus aureus, E. coli means Escherichia coli, and P. aeruginosa means Pseudomonas aeruginosa.
# [2] = tested on: P. aeruginosa ATCC 27853; format: cell-based, Pseudomonas aeruginosa
# Description: as §1, §2
# [3] = tested on: S. aureus ATCC 6538; format: cell-based, Staphylococcus aureus
# Description: as §1, §2
# [4] = tested on: MRSA ATCC 33591; format: cell-based, methicillin-resistant Staphylococcus aureus
# Description: as §1, §2
# [5] = tested on: P. aeruginosa PAO-1; format: cell-based, Pseudomonas aeruginosa
# Description: as §1, §2
# [6] = Escherichia coli, ATCC25922, 0.5 min, E. coli ATCC 25922, action time 0.5 min, read-out: MBC
# [7] = Escherichia coli, ATCC25922, 1 min, E. coli ATCC 25922, action time 1 min, read-out: MBC
# [8] = Escherichia coli, ATCC25922, 0.05 h, E. coli ATCC 25922, action time 3 min, read-out: MBC
# [9] = Pseudomonas aeruginosa, ATCC27853, 0.5 min, P. aeruginosa ATCC 27853, action time 0.5 min, read-out: MBC
# [10] = Pseudomonas aeruginosa, ATCC27853, 1 min, P. aeruginosa ATCC 27853, action time 1 min, read-out: MBC
# [11] = Pseudomonas aeruginosa, ATCC27853, 0.05 h, P. aeruginosa ATCC 27853, action time 3 min, read-out: MBC
# [12] = Staphylococcus aureus, ATCC6538, 0.5 min, S. aureus ATCC 6538, action time 0.5 min, read-out: MBC
# [13] = Staphylococcus aureus, ATCC6538, 1 min, S. aureus ATCC 6538, action time 1 min, read-out: MBC
# [14] = Staphylococcus aureus, ATCC6538, 0.05 h, S. aureus ATCC 6538, action time 3 min, read-out: MBC
# [15] = Staphylococcus aureus, 0.5 min, MRSA ATCC 33591, action time 0.5 min, read-out: MBC
# [16] = Staphylococcus aureus, 1 min, MRSA ATCC 33591, action time 1 min, read-out: MBC
# [17] = Staphylococcus aureus, 0.05 h, MRSA ATCC 33591, action time 3 min, read-out: MBC
# [18] = Pseudomonas aeruginosa, PAO1, 0.5 min, P. aeruginosa PAO-1, action time 0.5 min, read-out: MBC
# [19] = Pseudomonas aeruginosa, PAO1, 1 min, P. aeruginosa PAO-1, action time 1 min, read-out: MBC
# [20] = Pseudomonas aeruginosa, PAO1, 0.05 h, P. aeruginosa PAO-1, action time 3 min, read-out: MBC
# [21] = E. coli ATCC 25922, action time 0.5 min
# [22] = P. aeruginosa PAO-1, action time 0.5 min
# [23] = P. aeruginosa PAO-1, action time 1 min
# [24] = P. aeruginosa PAO-1, action time 3 min
# [25] = P. aeruginosa ATCC 27853, action time 0.5 min
# [26] = P. aeruginosa ATCC 27853, action time 1 min
# [27] = P. aeruginosa ATCC 27853, action time 3 min
# [28] = S. aureus ATCC 6538, action time 0.5 min
# [29] = S. aureus ATCC 6538, action time 1 min
# [30] = S. aureus ATCC 6538, action time 3 min
# [31] = MRSA ATCC 33591, action time 0.5 min
# [32] = MRSA ATCC 33591, action time 1 min
# [33] = MRSA ATCC 33591, action time 3 min
Molecule,"MBC [1, 6]","MBC [1, 7]","MBC [1, 8]","MBC [2, 9]","MBC [2, 10]","MBC [2, 11]","MBC [3, 12]","MBC [3, 13]","MBC [3, 14]","MBC [4, 15]","MBC [4, 16]","MBC [4, 17]",also measured
"CCCCCCCCCCNC1=NC(N2Cc3ccccc3C2)=NC(C)(C)N1 [Example 12, N-decyl-4-(1,3-dihydro-2H-isoindol-2-yl)-6,6-dimethyl-1,6-dihydro-1,3,5-triazine-2-amine]",18.8 µg/mL,18.8 µg/mL,15.7 µg/mL,37.5 µg/mL,37.5 µg/mL,18.8 µg/mL,25 µg/mL,18.8 µg/mL,4.7 µg/mL,25 µg/mL,12.5 µg/mL,6.3 µg/mL,
"CCCCCCCCCNC(=N)NC(=N)N(C)Cc1ccccc1.Cl.Cl [Example 30, N^5-nonyl-N^1-methyl-N^1-benzyl-biguanide dihydrochloride]",12.5 µg/mL,12.5 µg/mL,12.5 µg/mL,6.25 µg/mL,6.25 µg/mL,6.25 µg/mL,200 µg/mL,100 µg/mL,25 µg/mL,> 200 µg/mL,> 100 µg/mL,25 µg/mL,"MBC [5, 18]: 12.5 µg/mL; MBC [5, 19]: 6.25 µg/mL; MBC [5, 20]: 6.25 µg/mL"
"CCCCCCCCCCCCNC1=NC(N2CCOCC2)=NCN1 [Example 8, 1,6-dihydro-N-dodecyl-4-(morpholin-4-yl)-1,3,5-triazine-2-amine]",18.8 µg/mL,12.5 µg/mL,9.4 µg/mL,12.5 µg/mL,12.5 µg/mL,9.4 µg/mL,37.5 µg/mL,25 µg/mL,9.4 µg/mL,37.5 µg/mL,18.8 µg/mL,6.3 µg/mL,
"CC(=O)O.CCCCCCCCNC1=NC(C)(C)NC(N(CC)Cc2ccccc2)=N1 [Example 13, 1,6-dihydro-6,6-dimethyl-N^4-octyl-N^2-benzyl-N^2-ethyl-1,3,5-triazine-2,4-diamine acetate]",25 µg/mL,18.8 µg/mL,12.5 µg/mL,18.8 µg/mL,18.8 µg/mL,18.8 µg/mL,50 µg/mL,25 µg/mL,18.8 µg/mL,62.5 µg/mL,37.5 µg/mL,18.8 µg/mL,
"CCCCCCCCNC1=NC(C)(C)NC(N(C)CCc2ccccc2)=N1 [Example 14, 1,6-dihydro-6,6-dimethyl-N^4-octyl-N^2-methyl-N^2-(2-phenylethyl)-1,3,5-triazine-2,4-diamine]",25 µg/mL,25 µg/mL,12.5 µg/mL,25 µg/mL,18.8 µg/mL,12.5 µg/mL,75 µg/mL,37.5 µg/mL,18.8 µg/mL,62.5 µg/mL,31.3 µg/mL,15.7 µg/mL,
"CC(=O)O.CCCCCCCCCCCCNC1=NC(N2CCN(C)CC2)=NC(C)(C)N1 [Example 10, N-dodecyl-6,6-dimethyl-4-(4-methylpiperazin-1-yl)-1,6-dihydro-1,3,5-triazine-2-amine acetate]",25 µg/mL,25 µg/mL,25 µg/mL,25 µg/mL,18.8 µg/mL,18.8 µg/mL,75 µg/mL,50 µg/mL,12.5 µg/mL,50 µg/mL,50 µg/mL,12.5 µg/mL,
"CC(=O)O.CCCCCCCCN(C)C1=NC(C)(C)NC(NCc2ccc(Cl)c(Cl)c2)=N1 [Example 2, N^4-octyl-N^4-methyl-1,6-dihydro-6,6-dimethyl-N^2— (3,4-dichlorobenzyl)-1,3,5-triazine-2,4-diamine acetate]",12.5 µg/mL,6.25 µg/mL,6.25 µg/mL,25 µg/mL,25 µg/mL,12.5 µg/mL,25 µg/mL,25 µg/mL,12.5 µg/mL,25 µg/mL,25 µg/mL,12.5 µg/mL,"MBC [5, 18]: 25 µg/mL; MBC [5, 19]: 25 µg/mL; MBC [5, 20]: 12.5 µg/mL"
"CCCCCCCCCCNC1=NC(C)(C)NC(N(C)CCC)=N1 [Example 16, 1,6-dihydro-6,6-dimethyl-N^4-decyl-N^2-methyl-N^2-propyl-1,3,5-triazine-2,4-diamine]",18.8 µg/mL,18.8 µg/mL,9.4 µg/mL,25 µg/mL,18.8 µg/mL,18.8 µg/mL,75 µg/mL,50 µg/mL,25 µg/mL,100 µg/mL,37.5 µg/mL,18.8 µg/mL,
"CCCCCCCCCCNC(=N)NC(=N)N(C)Cc1ccccc1.Cl.Cl [Example 29, N^5-decyl-N′-methyl-N′-benzyl-biguanide dihydrochloride]",,,,,,,,,,,,,"MBC [1, 21]: 6.25 µg/mL; MBC ([1]; E. coli ATCC 25922, action time 1 min): 6.25 µg/mL; MBC ([1]; E. coli ATCC 25922, action time 3 min): 6.25 µg/mL; MBC [5, 22]: 12.5 µg/mL; MBC [5, 23]: 12.5 µg/mL; MBC [5, 24]: 6.25 µg/mL; MBC [2, 25]: 12.5 µg/mL; MBC [2, 26]: 12.5 µg/mL; MBC [2, 27]: 6.25 µg/mL; MBC [3, 28]: 200 µg/mL; MBC [3, 29]: 100 µg/mL; MBC [3, 30]: 12.5 µg/mL; MBC [4, 31]: 200 µg/mL; MBC [4, 32]: 200 µg/mL; MBC [4, 33]: 50 µg/mL"
"CCCCCCCCCCCCCCN(C)C1=NC(C)(C)NC(N)=N1.Cl [Example 18, N^4-tetradecyl-N^4-methyl-1,6-dihydro-6,6-dimethyl-1,3,5-triazine-2,4-diamine hydrochloride]",12.5 µg/mL,12.5 µg/mL,6.3 µg/mL,18.8 µg/mL,12.5 µg/mL,9.4 µg/mL,18.8 µg/mL,12.5 µg/mL,4.7 µg/mL,18.8 µg/mL,9.4 µg/mL,4.7 µg/mL,
"CCCCCCCCCCCNC1=NC(C)(C)NC(N(C)Cc2ccc(N)cc2)=N1.Cl.Cl [Example 17, 1,6-dihydro-6,6-dimethyl-N^4-undecyl-N^2-(4-aminobenzyl)-N^2-methyl-1,3,5-triazine-2,4-diamine dihydrochloride]",25 µg/mL,18.8 µg/mL,12.5 µg/mL,37.5 µg/mL,18.8 µg/mL,9.4 µg/mL,25 µg/mL,15.7 µg/mL,7.8 µg/mL,18.8 µg/mL,12.5 µg/mL,6.3 µg/mL,
"CC(=O)O.CCCCCCCCCCNC1=NC(N2CCCCC2)=NC(C)(C)N1 [Example 11, N-decyl-6,6-dimethyl-4-(piperidin-1-yl)-1,6-dihydro-1,3,5-triazine-2-amine acetate]",18.8 µg/mL,18.8 µg/mL,18.8 µg/mL,25 µg/mL,25 µg/mL,18.8 µg/mL,50 µg/mL,37.5 µg/mL,25 µg/mL,75 µg/mL,62.5 µg/mL,31.3 µg/mL,
"N=C(NCCCCCCNC(=N)NC(=N)Nc1ccc(Cl)cc1)NC(=N)Nc1ccc(Cl)cc1.O=C(O)[C@H](O)[C@@H](O)[C@H](O)[C@H](O)CO.O=C(O)[C@H](O)[C@@H](O)[C@H](O)[C@H](O)CO [control, chlorhexidine gluconate, reference compound]",,,,,,,,,,,,,"MBC [1, 21]: 100 µg/mL; MBC [2, 25]: >200 µg/mL; MBC [3, 28]: >200 µg/mL; MBC [3, 29]: >200 µg/mL; MBC [3, 30]: >200 µg/mL; MBC [4, 31]: >200 µg/mL; MBC [4, 32]: >200 µg/mL; MBC [4, 33]: 200 µg/mL"
"1,6-dihydro-6,6-dimethyl-N^4-decyl-N^2-benzyl-N^2-methyl-1,3,5-triazine-2,4-diamine gluconate [Example 3]",,,,,,,,,,,,,"MBC [5, 22]: 25 µg/mL; MBC [5, 23]: 25 µg/mL; MBC [5, 24]: 25 µg/mL; MBC [2, 25]: 25 µg/mL; MBC [2, 26]: 25 µg/mL; MBC [2, 27]: 25 µg/mL; MBC [3, 28]: 25 µg/mL; MBC [3, 29]: 25 µg/mL; MBC [4, 31]: 25 µg/mL; MBC [4, 32]: 25 µg/mL; MBC [4, 33]: 25 µg/mL"
